Data taken from US8846951B2 (AbbVie Inc., priority 2009, dated 2014).
Like-named read-outs stand apart in the source and are kept apart here.

Columns and labels:
5HT2B receptors = biological target: T1, 5HT2B receptors (Homo sapiens, UniProt P41595); assay: Human 5-HT2B functional high throughput screening assay in CHO-K1 cells (calcium flux); assay type: cell-based; settings: for EC50: CHO-K1 cells, calcium flux
T1 construct: expressed in transfected cells; host or cells: CHO-K1 cells
Procedure, shortened: (§1)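 Serum-starved CHO-K1 cells carrying the receptor; Ca4 dye, 60 min RT. Test compound added after a 10 s baseline, fluorescence followed for 3 min. EC50 from 4-parameter fit; Emax given as % of serotonin effect.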

5HT2C receptors = biological target: T2, 5HT2C receptors (Homo sapiens, UniProt P28335); assay: Human 5-HT2C functional high throughput screening assay in CHO-K1 cells (calcium flux); assay type: cell-based; design: expressed in transfected cells; host or cells: CHO-K1 cells; settings: for Emax: 5-HT2C, maximum functional response as percentage relative to the effect of serotonin; for EC50: CHO-K1 cells, calcium flux
T2 sequence (P28335 33-458): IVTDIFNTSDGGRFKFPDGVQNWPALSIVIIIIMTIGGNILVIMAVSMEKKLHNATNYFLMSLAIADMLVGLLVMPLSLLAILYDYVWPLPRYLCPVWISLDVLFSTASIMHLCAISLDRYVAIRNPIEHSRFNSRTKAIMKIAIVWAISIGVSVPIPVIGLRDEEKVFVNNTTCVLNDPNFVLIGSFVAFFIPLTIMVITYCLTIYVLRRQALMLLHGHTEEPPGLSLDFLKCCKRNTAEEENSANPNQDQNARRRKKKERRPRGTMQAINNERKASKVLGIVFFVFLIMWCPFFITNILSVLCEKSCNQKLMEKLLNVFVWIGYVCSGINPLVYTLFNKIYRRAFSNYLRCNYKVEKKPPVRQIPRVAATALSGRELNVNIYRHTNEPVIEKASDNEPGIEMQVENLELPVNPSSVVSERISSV
Procedure, shortened: as §1

[1] = 5-HT2B, maximum functional response as percentage relative to the effect of serotonin
[2] = 5-HT2B agonist activity, read-out: EC50
[3] = 5-HT2C agonist activity, read-out: EC50
[4] = CHO-K1, 5-HT2B, maximum functional response as percentage relative to the effect of serotonin, read-out: Emax

T1 sequence (P41595 whole entry): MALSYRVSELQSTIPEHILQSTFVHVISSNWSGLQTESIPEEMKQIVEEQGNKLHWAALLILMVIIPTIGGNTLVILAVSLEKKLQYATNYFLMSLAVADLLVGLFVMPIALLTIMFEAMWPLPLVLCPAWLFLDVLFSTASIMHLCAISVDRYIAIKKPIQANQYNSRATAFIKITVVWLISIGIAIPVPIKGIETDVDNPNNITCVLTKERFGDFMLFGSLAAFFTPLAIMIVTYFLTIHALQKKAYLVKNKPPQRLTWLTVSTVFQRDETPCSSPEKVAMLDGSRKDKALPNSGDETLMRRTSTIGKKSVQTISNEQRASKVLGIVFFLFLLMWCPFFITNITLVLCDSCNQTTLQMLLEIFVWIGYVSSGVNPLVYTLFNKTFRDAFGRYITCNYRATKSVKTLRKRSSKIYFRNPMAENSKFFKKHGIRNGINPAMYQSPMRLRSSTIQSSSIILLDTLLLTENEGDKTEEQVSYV

| SMILES | Emax (5HT2B receptors; [1]) | EC50 (5HT2B receptors; EC50, 5-HT2B agonist activity) [nM] | Emax (5HT2C receptors; CHO-K1) [%] | EC50 (5HT2C receptors; EC50, 5-HT2C agonist activity) [nM] | EC50 (5HT2B receptors; [2]) [nM] | EC50 (5HT2C receptors; [3]) [nM] | Emax (5HT2C receptors; CHO-K1, read-out: Emax) [%] | Emax (5HT2B receptors; CHO-K1) [%] | other results |
| --- | --- | --- | --- | --- | --- | --- | --- | --- | --- |
| COc1ncc(-c2ccc3c(c2)C(=O)NC[C@@H]2CNC[C@@H]32)cn1 (relative stereo) [Example 178, Trans-8-(2-methoxypyrimidin-5-yl)-1,2,3,3a,4,5-hexahydrobenzo[e]pyrrolo[3,4-c]azepin-6(10bH)-one] | inactive | > 10000 | > 120 | 70 | – | – | – | – | – |
| CN1C[C@H]2CNC(=O)c3cc(-c4ccc5c(c4)CCO5)ccc3[C@@H]2C1 (relative stereo) [Example 321, Trans-8-(2,3-dihydro-1-benzofuran-5-yl)-2-methyl-2,3,3a,4,5,10b-hexahydropyrrolo[3,4-d][2]benzazepin-6(1H)-one] | inactive | – | – | – | > 10000 | 3 | 90 | – | – |
| O=C1NC[C@@H]2CNC[C@H]2c2ccc(OCc3cccc(F)c3)cc21 (relative stereo) [Example 146, Trans-8-(3-fluorobenzyloxy)-1,2,3,3a,4,5-hexahydrobenzo[e]pyrrolo[3,4-c]azepin-6(10bH)-one] | – | 1000 | > 120 | 0.8 | – | – | – | 15 | – |
| CN1C[C@@H]2CNC(=O)c3cc(OCC4CC4)ccc3[C@H]2C1 [Example 277, (3aS,10bS)-8-(Cyclopropylmethoxy)-2-methyl-1,2,3,3a,4,5-hexahydrobenzo[e]pyrrolo[3,4-c]azepin-6(10bH)-one] | inactive | > 10000 | 100 | 10 | – | – | – | – | – |
| Nc1ccc2c(c1)C(=O)NC[C@@H]1CN(Cc3ccccc3)C[C@@H]21 (relative stereo) [Example 141, Trans-8-amino-2-benzyl-1,2,3,3a,4,5-hexahydrobenzo[e]pyrrolo[3,4-c]azepin-6(10bH)-one] | inactive | – | – | – | > 10000 | 600 | > 120 | – | – |
| O=S1(=O)NC[C@@H]2CNC[C@H]2c2ccccc21 (relative stereo) [Example 111, Trans-2,3,3a,4,5,10b-hexahydro-1H-pyrrolo[3,4-d][1,2]benzothiazepine 6,6-dioxide] | – | – | 100 | – | > 10000 | 6000 | – | 20 | – |
| Fc1cccc2c1[C@H]1CNC[C@@H]1CCO2 (relative stereo) [Example 287, Trans-10-fluoro-2,3,3a,4,5,10b-hexahydro-1H-[1]benzoxepino[4,5-c]pyrrole] | – | 300 | 95 | 50 | – | – | – | 40 | – |
| O=S(=O)(c1ccccc1OC(F)(F)F)N1Cc2cccnc2[C@@H]2CNC[C@H]2C1 (relative stereo) [Example 364, Trans-6-{[2-(trifluoromethoxy)phenyl]sulfonyl}-5,6,7,7a,8,9,10,10a-octahydropyrido[3,2-c]pyrrolo[3,4-e]azepine] | – | – | – | – | 90 | 100 | 85 | – | Emax (5HT2B receptors; [4]): 90% |
| CC(C)COc1ccc2c(c1)C(=O)NC[C@H]1CNC[C@H]21 [Example 308, (3aR-10bS)-8-Isobutoxy-2,3,3a,4,5,10b-hexahydropyrrolo[3,4-d][2]benzazepin-6(1H)-one] | inactive | > 10000 | 95 | 3 | – | – | – | – | – |
| CN1C[C@H]2CNC(=O)c3cc(-c4ccc(OC(F)(F)F)cc4)ccc3[C@@H]2C1 (relative stereo) [Example 140, Trans-2-methyl-8-(4-(trifluoromethoxy)phenyl)-1,2,3,3a,4,5-hexahydrobenzo[e]pyrrolo[3,4-c]azepin-6(10bH)-one] | inactive | – | – | – | > 10000 | 60 | > 120 | – | – |
| Cc1c(Cl)cccc1S(=O)(=O)N1Cc2cccnc2[C@@H]2CNC[C@H]2C1 (relative stereo) [Example 342, Trans-6-[(3-chloro-2-methylphenyl)sulfonyl]-5,6,7,7a,8,9,10,10a-octahydropyrido[3,2-c]pyrrolo[3,4-e]azepine] | – | – | – | – | 300 | 60 | 90 | – | Emax (5HT2B receptors; [4]): 40% |
| O=C1NC[C@@H]2CNC[C@H]2c2cc3ccccc3cc21 (relative stereo) [Example 257, Trans-1,2,3,3a,4,5-hexahydronaphtho[2,3-e]pyrrolo[3,4-e]azepin-6(12bH)-one] | – | – | – | – | 60 | 20 | 120 | – | Emax (5HT2B receptors; [4]): 40% |
| Fc1ccc(-c2cccc3c2NCC[C@@H]2CNC[C@@H]32)cc1 (relative stereo) [Example 401, Trans-7-(4-fluorophenyl)-1,2,3,3a,4,5,6,10b-octahydropyrrolo[3,4-d][1]benzazepine] | inactive | – | – | – | > 10000 | 800 | 70 | – | – |
| c1ccc2c(c1)NCC[C@@H]1CNC[C@@H]21 (relative stereo) [Example 389, Trans-1,2,3,3a,4,5,6,10b-octahydropyrrolo[3,4-d][1]benzazepine] | – | – | 95 | – | 400 | 900 | – | 70 | – |
| Clc1ccc2c(c1)[C@@H]1CNC[C@H]1CCN2 (relative stereo) [Example 391, Trans-9-chloro-1,2,3,3a,4,5,6,10b-octahydropyrrolo[3,4-d][1]benzazepine] | – | 20 | 90 | 90 | – | – | – | 70 | – |
| COc1ccc(CCOc2ccc3c(c2)C(=O)NC[C@@H]2CNC[C@@H]32)cc1 (relative stereo) [Example 175, Trans-8-(4-methoxyphenethoxy)-1,2,3,3a,4,5-hexahydrobenzo[e]pyrrolo[3,4-c]azepin-6(10bH)-one] | inactive | – | – | – | > 10000 | 6 | > 120 | – | – |
| CN1C[C@H]2CNC(=O)c3cc(C4=CCCC4)ccc3[C@@H]2C1 (relative stereo) [Example 201, Trans-8-cyclopentenyl-2-methyl-1,2,3,3a,4,5-hexahydrobenzo[e]pyrrolo[3,4-c]azepin-6(10bH)-one] | inactive | > 10000 | 120 | 100 | – | – | – | – | – |
| CN1C[C@@H]2CNC(=O)c3c(OC(F)(F)F)cccc3[C@H]2C1 [Example 113, (3aS,10bS)-2-Methyl-7-(trifluoromethoxy)-1,2,3,3a,4,5-hexahydrobenzo[c]pyrrolo[3,4-e]azepin-6(10bH)-one] | – | 2000 | 120 | 5 | – | – | – | 20 | – |
| CN1C[C@H]2CNC(=O)c3cc(OCC4CCCCC4)ccc3[C@@H]2C1 (relative stereo) [Example 176, Trans-8-(cyclohexylmethoxy)-2-methyl-1,2,3,3a,4,5-hexahydrobenzo[e]pyrrolo[3,4-c]azepin-6(10bH)-one] | inactive | – | > 120 | – | > 10000 | 200 | – | – | – |
| Cc1noc(C)c1-c1ccc2c(c1)C(=O)NC[C@@H]1CNC[C@@H]21 (single isomer, unassigned) [Example 292, Trans-8-(3,5-dimethyl-1,2-oxazol-4-yl)-2,3,3a,4,5,10b-hexahydropyrrolo[3,4-d][2]benzazepin-6(1H)-one] | 15% | – | – | – | – | – | – | – | EC50 (5HT2B receptors; 5-HT2B agonist activity): 2000 nM; EC50 (5HT2C receptors; 5-HT2C agonist activity): 50 nM; Emax (5HT2C receptors): 100% |
| c1ccc(-c2ccc3c(c2)[C@H]2CNC[C@@H]2CCO3)cc1 (relative stereo) [Example 215, Trans-9-phenyl-2,3,3a,4,5,10b-hexahydro-1H-[1]benzoxepino[4,5-c]pyrrole] | – | – | – | – | 5000 | 600 | > 120 | – | Emax (5HT2B receptors; [4]): 15% |
| CN1C[C@H]2CNC(=O)c3c(F)cccc3[C@@H]2C1 (relative stereo) [Example 92, Trans-7-fluoro-2-methyl-1,2,3,3a,4,5-hexahydrobenzo[e]pyrrolo[3,4-c]azepin-6(10bH)-one] | – | 1350 | > 120 | 56 | – | – | – | 34 | – |
| Cc1ccccc1S(=O)(=O)N1Cc2cccnc2[C@@H]2CNC[C@H]2C1 (relative stereo) [Example 341, Trans-6-[(2-methylphenyl)sulfonyl]-5,6,7,7a,8,9,10,10a-octahydropyrido[3,2-c]pyrrolo[3,4-e]azepine] | – | 300 | 90 | 90 | – | – | – | 65 | – |
| N#Cc1cccc(-c2ccc3c(c2)C(=O)NC[C@@H]2CNC[C@@H]32)c1 (relative stereo) [Example 239, 3-(Trans-6-oxo-1,2,3,3a,4,5,6,10b-octahydrobenzo[c]pyrrolo[3,4-e]azepin-8-yl)benzonitrile] | – | – | – | – | 2000 | 0.8 | > 120 | – | Emax (5HT2B receptors; [4]): 20% |
